Source: PMC7598995, “HT-SuMD: making molecular dynamics simulations suitable for fragment-based screening. A comparative study with NMR” (Journal of Enzyme Inhibition and Medicinal Chemistry, 2020)

Target: T1, Bcl-XL (Homo sapiens, UniProt Q07817)
T1 construct: gene BCL2L1; human Bcl-XL lacking the C-terminus domain (Δ209-233), 6His-tagged
Assay: NMR: […] SOFAST-HMQC titration, plus STD and WaterLOGSY
Format: binding

T1 sequence (Q07817 1-208): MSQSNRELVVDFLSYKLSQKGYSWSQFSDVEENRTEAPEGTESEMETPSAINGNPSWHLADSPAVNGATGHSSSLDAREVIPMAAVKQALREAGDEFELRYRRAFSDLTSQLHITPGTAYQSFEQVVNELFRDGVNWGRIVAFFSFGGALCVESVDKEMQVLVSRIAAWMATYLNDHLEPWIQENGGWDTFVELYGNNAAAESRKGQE

Oc1ccccc1Cc1ccccc1 [compound 222, fragment 222]
Kd: 1 ± 0.4 mM
